In patent US20060004019A1, “Steroid sparing agents and methods of using same” (priority 2004, published 2006):

What was measured:
[1] = test system: rat cardiac allografts; assay: Rat cardiac allograft study, Allograft Study 2 (Table 20); settings: for number of surviving grafts within each group / percent of surviving grafts within a group: s.c., GG5/3 3 mg/kg, compounds 30 mg/kg;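 on all read-outs here: lewis x Brown Norway F1 hearts grafted abdominally into male Lewis rats, palpated daily, rejection meaning complete loss of heartbeat, day 0 being surgery day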
[2] = test system: rat cardiac allografts; assay: Rat cardiac allograft study, Allograft Study 4 (Table 22); settings: s.c., GG5/3 3 mg/kg, compounds 30 mg/kg;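 further: heterotopic abdominal heart transplants from Lewis × Brown Norway F1 donors into male Lewis rats, graft beating checked daily by flank palpation, rejection defined as complete stop of heartbeat, transplant day 0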

With `CC(C)OC(=O)[C@H](Cc1ccc(OC(=O)N(C)C)cc1)NC(=O)[C@H]1N(S(=O)(=O)c2cccnc2)CSC1(C)C` the “number of surviving grafts within each group” value ([1]; Day 0) was 6, the “number of surviving grafts within each group” value ([1]; Day 1) was 6 and the “number of surviving grafts within each group” value ([1]; Day 2) was 6. The “number of surviving grafts within each group” value ([1]; Day 3) was 6, the “number of surviving grafts within each group” value ([1]; Day 4) was 6 and the “number of surviving grafts within each group” value ([1]; Day 5) was 6. The “number of surviving grafts within each group” value ([1]; Day 6) was 6, the “number of surviving grafts within each group” value ([1]; Day 7) was 6 and the “number of surviving grafts within each group” value ([1]; Day 8) was 4. The “number of surviving grafts within each group” value ([1]; Day 9) was 2, the “number of surviving grafts within each group” value ([1]; Day 10) was 2 and the “number of surviving grafts within each group” value ([1]; Day 11) was 1. The “number of surviving grafts within each group” value ([1]; Day 12) was 0, the “number of surviving grafts within each group” value ([1]; Day 13) was 0 and the “number of surviving grafts within each group” value ([1]; Day 14) was 0. For the same molecule, the “number of surviving grafts within each group” value ([1]; Day 15) was 0 and the “number of surviving grafts within each group” value ([1]; Day 16) was 0.
With `CC(C)OC(=O)[C@H](Cc1ccc(OC(=O)N(C)C)cc1)NC(=O)[C@H]1N(S(=O)(=O)c2cnn(C)c2)CSC1(C)C` the “percent of surviving grafts within a group” value (“percent” for short) ([1]; Day 0) was 100%, the “percent” value ([1]; Day 1) was 100% and the “percent” value ([1]; Day 2) was 100%. For the same molecule, the “percent” value ([1]; Day 3) was 100%, the “percent” value ([1]; Day 4) was 100% and the “percent” value ([1]; Day 5) was 100%. For the same molecule, the “percent” value ([1]; Day 6) was 100%, the “percent” value ([1]; Day 7) was 100% and the “percent” value ([1]; Day 8) was 100%. For the same molecule, the “percent” value ([1]; Day 9) was 100%, the “percent” value ([1]; Day 10) was 83% and the “percent” value ([1]; Day 11) was 50%. For the same molecule, the “percent” value ([1]; Day 12) was 50%, the “percent” value ([1]; Day 13) was 33% and the “percent” value ([1]; Day 14) was 16%. For the same molecule, the “percent” value ([1]; Day 15) was 16% and the “percent” value ([1]; Day 16) was 0%.
In the case of `CC(C)OC(=O)[C@H](Cc1ccc(OC(=O)N(C)C)cc1)NC(=O)[C@H]1N(S(=O)(=O)c2cccnc2)CSC1(C)C` [Example 173], the “day by which all grafts rejected” value ([1]; 30 mg/kg s.c. every 12 h, day 0 through day +10) is reported as at most 12 days and the “graft survival (in words)” value ([1]; compounds 30 mg/kg s.c. every 12 h, GG5/3 3 mg/kg s.c. day 0, +3, +7, +10) is reported as “prolonged graft survival for a short period”.
For `CC(C)OC(=O)[C@H](Cc1ccc(OC(=O)N2CCN(C)CC2)cc1)NC(=O)[C@H]1N(S(=O)(=O)c2cccnc2)CSC1(C)C`, the “percent” value ([2]; day 0) was 100%, the “percent” value ([2]; day 1) was 100% and the “percent” value ([2]; day 2) was 100%. For the same molecule, the “percent” value ([2]; day 3) was 100%, the “percent” value ([2]; day 4) was 100% and the “percent” value ([2]; day 5) was 100%. The “percent” value ([2]; day 6) was 100%, the “percent” value ([2]; day 7) was 100% and the “percent” value ([2]; day 8) was 100%. The “percent” value ([2]; day 9) was 83%, the “percent” value ([2]; day 10) was 66% and the “percent” value ([2]; day 11) was 66%. For the same molecule, the “percent” value ([2]; day 12) was 66%, the “percent” value ([2]; day 13) was 66% and the “percent” value ([2]; day 14) was 66%. The “percent” value ([2]; day 15) was 66%, the “percent” value ([2]; day 16) was 50% and the “percent” value ([2]; day 17) was 50%. The “percent” value ([2]; day 18) was 50%, the “percent” value ([2]; day 19) was 50% and the “number of surviving grafts” value ([2]; day 20) was 2. For the same molecule, the “percent” value ([2]; day 20) was 33%, the “number of surviving grafts” value ([2]; day 21) was 2 and the “percent” value ([2]; day 21) was 33%. The “number of surviving grafts” value ([2]; day 22) was 2, the “percent” value ([2]; day 22) was 33% and the “number of surviving grafts” value ([2]; day 23) was 2. For the same molecule, the “percent” value ([2]; day 23) was 33%, the “number of surviving grafts” value ([2]; day 24) was 2 and the “percent” value ([2]; day 24) was 33%. The “number of surviving grafts” value ([2]; day 25) was 2, the “percent” value ([2]; day 25) was 33% and the “number of surviving grafts” value ([2]; day 26) was 2. The “percent” value ([2]; day 26) was 33%, the “number of surviving grafts” value ([2]; day 27) was 2 and the “percent” value ([2]; day 27) was 33%. For the same molecule, the “number of surviving grafts” value ([2]; day 28) was 2, the “percent” value ([2]; day 28) was 33% and the “number of surviving grafts” value ([2]; day 29) was 2. For the same molecule, the “percent” value ([2]; day 29) was 33%, the “number of surviving grafts” value ([2]; day 30) was 2 and the “percent” value ([2]; day 30) was 33%. The “number of surviving grafts” value ([2]; day 31) was 1, the “percent” value ([2]; day 31) was 16% and the “number of surviving grafts” value ([2]; day 32) was 1. For the same molecule, the “percent” value ([2]; day 32) was 16%, the “number of surviving grafts” value ([2]; day 33) was 1 and the “percent” value ([2]; day 33) was 16%. The “number of surviving grafts” value ([2]; day 34) was 1, the “percent” value ([2]; day 34) was 16% and the “number of surviving grafts” value ([2]; day 35) was 1. For the same molecule, the “percent” value ([2]; day 35) was 16%, the “number of surviving grafts” value ([2]; day 36) was 1 and the “percent” value ([2]; day 36) was 16%. For the same molecule, the “number of surviving grafts” value ([2]; day 37) was 1, the “percent” value ([2]; day 37) was 16% and the “number of surviving grafts” value ([2]; day 38) was 1. The “percent” value ([2]; day 38) was 16%, the “number of surviving grafts” value ([2]; day 39) was 1 and the “percent” value ([2]; day 39) was 16%. For the same molecule, the “number of surviving grafts” value ([2]; day 40) was 1, the “percent” value ([2]; day 40) was 16% and the “number of surviving grafts” value ([2]; day 41) was 1. For the same molecule, the “percent” value ([2]; day 41) was 16%, the “number of surviving grafts” value ([2]; day 42) was 0 and the “percent” value ([2]; day 42) was 0%.
